Test results: paper PMC3620930 (Molecular oral microbiology, 2012)

Assays:
Assay in all cases: inhibition of amidolytic activity
Type in all cases: biochemical
RgpB = RgpB (Porphyromonas gingivalis, UniProt P95493)
HRgpA = HRgpA (Porphyromonas gingivalis, UniProt P28784)
Lys-gingipain = Lys-gingipain (Porphyromonas gingivalis, UniProt P72197)

Row | SMILES | Ki (RgpB) [µM] | Ki (HRgpA) [µM] | Ki (Lys-gingipain) [µM]
1 | N=C(N)c1ccc(CC2CCCC(Cc3ccc(C(=N)N)cc3)C2=O)cc1 (stereo not drawn) [2,6-bis-(4-amidinobenzyl)-cyclohexanone] | 0.51 | 2.9 | > 1000
2 | N=C(N)c1ccccc1 [benzamidine] | 277 | 536 | > 1000
3 | N=C(N)c1ccc(OCCCCCOc2ccc(C(=N)N)cc2)cc1 [pentamidine] | 40.3 | 107 | > 1000
